Tests used:
[1] = Total body clearance in CD(SD) rat at 1 mg/kg, iv administered as single dose and measured after 24 hrs; format: ADME, organism-based; conditions: in vivo
[2] = MRT in CD(SD) rat at 10 mg/kg, po administered as single dose and measured after 24 hrs; format: ADME, organism-based; conditions: in vivo
[3] = Elimination half life in C57BL/6J mouse at 1 mg/kg, iv administered as single dose and measured after 24 hrs; format: ADME, organism-based; conditions: in vivo, read-out: beta t1/2 (converted)
[4] = Total body clearance in C57BL/6J mouse at 1 mg/kg, iv administered as single dose and measured after 24 hrs; format: ADME, organism-based; conditions: in vivo
[5] = Total body clearance in Beagle dog at 1 mg/kg, iv administered as single dose and measured after 24 hrs; format: ADME, organism-based, Canis lupus familiaris; conditions: in vivo
[6] = Total body clearance in cynomolgus monkey at 1 mg/kg, iv administered as single dose and measured after 24 hrs; format: ADME, organism-based, Macaca fascicularis; conditions: in vivo
[7] = Selectivity ratio of antagonist activity at human RORalpha to inhibition of RORgamma (unknown origin)
[8] = Selectivity ratio of antagonist activity at human SF1 to inhibition of RORgamma (unknown origin)
[9] = Selectivity ratio of antagonist activity at mouse GR to inhibition of RORgamma (unknown origin)
[10] = Selectivity ratio of antagonist activity at human PR to inhibition of RORgamma (unknown origin)
[11] = Selectivity ratio of antagonist activity at human FXR to inhibition of RORgamma (unknown origin)
[12] = Selectivity ratio of antagonist activity at human PPARalpha to inhibition of RORgamma (unknown origin)
[13] = Selectivity ratio of antagonist activity at human RXRalpha to inhibition of RORgamma (unknown origin)
[14] = Selectivity ratio of agonist activity at human ERalpha to inhibition of RORgamma (unknown origin)
[15] = Selectivity ratio of agonist activity at human FXR to inhibition of RORgamma (unknown origin)
[16] = Selectivity ratio of agonist activity at mouse LXRalpha to inhibition of RORgamma (unknown origin)
[17] = Selectivity ratio of agonist activity at human PPARgamma to inhibition of RORgamma (unknown origin)
[18] = Selectivity ratio of agonist activity at human RARalpha to inhibition of RORgamma (unknown origin)
[19] = target: Adrenergic receptor alpha-1 (Rattus norvegicus, UniProt P15823+P23944+P43140); assay: Inhibition of rat adrenergic alpha1 receptor; format: protein assay
[20] = target: Adrenergic receptor alpha-2 (Rattus norvegicus, UniProt P22086+P19328+P22909); assay: Inhibition of rat adrenergic alpha2 receptor; format: protein assay
[21] = target: Beta-2 adrenergic receptor (Homo sapiens, UniProt P07550); assay: Inhibition of human adrenergic beta2 receptor
[22] = target: Beta-3 adrenergic receptor (Homo sapiens, UniProt P13945); assay: Inhibition of human adrenergic beta3 receptor
[23] = target: D(1A) dopamine receptor (Homo sapiens, UniProt P21728); assay: Inhibition of human dopamine D1 receptor
[24] = target: GABA-A receptor; anion channel; assay: Inhibition of rat GABA-A receptor; format: protein-complex assay
[25] = Inhibition of rat GABA-B receptor
[26] = Inhibition of rat glutamate receptor
[27] = Inhibition of rat opioid receptor
[28] = target: 5-hydroxytryptamine receptor 1A (Homo sapiens, UniProt P08908); assay: Inhibition of human 5-HT1A receptor
[29] = target: Cytochrome P450 2C8 (Homo sapiens, UniProt P10632); assay: Inhibition of CYP2C8 in human liver microsomes; format: ADME, Microsome
[30] = target: Cytochrome P450 2C9 (Homo sapiens, UniProt P11712); assay: Inhibition of CYP2C9 in human liver microsomes; format: ADME, Microsome
[31] = Genotoxicity in Salmonella typhimurium TA1535 at 188 to 5000 ug in absence of S9 fraction by bacterial reverse mutation test; format: toxicity, Salmonella enterica subsp. enterica serovar Typhimurium; conditions: in vivo; dose 188-5000 µg
[32] = Genotoxicity in Salmonella typhimurium TA1537 at 23 to 750 ug in absence of S9 fraction by bacterial reverse mutation test; format: toxicity, Salmonella enterica subsp. enterica serovar Typhimurium; conditions: in vivo; dose 23-750 µg
[33] = Toxicity in CHL cells assessed as chromosomal aberration at 60 to 80 ug/ml incubated for 6 hrs in absence of S9 fraction; format: cell-based, Cricetulus griseus; conditions: chinese hamster, dose 60-80 µg/ml
[34] = Toxicity in CHL cells assessed as chromosomal aberration at 30 to 50 ug/ml incubated for 24 hrs in presence of S9 fraction; format: subcellular, Cricetulus griseus; conditions: chinese hamster, s9, 24 h, dose 30-50 µg/ml
[35] = Toxicity in Sprague-Dawley rat assessed as development-limiting toxicity at 30 to 300 mg/kg, po administered once daily and measured on day 1,14 and 27; format: organism-based; conditions: in vivo, 648 h, dose 30-300 mg/kg, time 27 day
[36] = Cmax in human at 60 […], po administered as single dose and measured upto 144 hrs; format: ADME, organism-based; conditions: in vivo
[37] = Cmax in human at 200 […], po administered as single dose and measured upto 144 hrs; format: ADME, organism-based; conditions: in vivo
[38] = Tmax in human at 100 […], po administered as single dose and measured upto 144 hrs; format: ADME, organism-based; conditions: in vivo
[39] = Tmax in human at 600 […], po administered as single dose and measured upto 144 hrs; format: ADME, organism-based; conditions: in vivo
[40] = AUClast in human at 30 mg/kg, po administered as single dose and measured upto 144 hrs; format: ADME, organism-based; conditions: in vivo
[41] = AUClast in human at 60 mg/kg, po administered as single dose and measured upto 144 hrs; format: ADME, organism-based; conditions: in vivo
[42] = AUClast in human at 100 […], po administered as single dose and measured upto 144 hrs; format: ADME, organism-based; conditions: in vivo
[43] = AUClast in human at 200 mg/kg, po administered as single dose and measured upto 144 hrs; format: ADME, organism-based; conditions: in vivo
[44] = AUClast in human at 600 mg/kg, po administered as single dose and measured upto 144 hrs; format: ADME, organism-based; conditions: in vivo
[45] = AUClast in human at 1000 mg/kg, po administered as single dose and measured upto 144 hrs; format: ADME, organism-based; conditions: in vivo
[46] = AUClast in human at 1600 mg/kg, po administered as single dose and measured upto 144 hrs; format: ADME, organism-based; conditions: in vivo
[47] = Elimination half life in human at 400 mg/kg, po administered as single dose and measured upto 144 hrs; format: ADME, organism-based; conditions: in vivo, read-out: beta t1/2 (converted)
[48] = Elimination half life in human at 1600 mg/kg, po administered as single dose and measured upto 144 hrs; format: ADME, organism-based; conditions: in vivo, read-out: beta t1/2 (converted)
[49] = Toxicity in Beagle dog assessed as development-limiting toxicity at 30 to 100 mg/kg, po administered once daily and measured on day 1,14 and 28; format: organism-based, Canis lupus familiaris; conditions: in vivo, 672 h, dose 30-100 mg/kg, time 28 day

Sequence of 5-hydroxytryptamine receptor 1A (P08908 whole entry): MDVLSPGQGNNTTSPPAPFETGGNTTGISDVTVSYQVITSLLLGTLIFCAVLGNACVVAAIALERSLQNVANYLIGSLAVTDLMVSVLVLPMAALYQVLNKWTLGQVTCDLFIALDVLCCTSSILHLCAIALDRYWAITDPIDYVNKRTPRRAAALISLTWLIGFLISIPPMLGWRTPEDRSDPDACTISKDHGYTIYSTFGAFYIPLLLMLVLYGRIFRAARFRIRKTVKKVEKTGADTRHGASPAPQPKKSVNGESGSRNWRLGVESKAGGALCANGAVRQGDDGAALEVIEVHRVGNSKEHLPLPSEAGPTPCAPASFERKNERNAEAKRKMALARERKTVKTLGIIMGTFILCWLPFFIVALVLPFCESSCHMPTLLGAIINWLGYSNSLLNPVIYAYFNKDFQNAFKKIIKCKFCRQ
Sequence of D(1A) dopamine receptor (P21728 whole entry): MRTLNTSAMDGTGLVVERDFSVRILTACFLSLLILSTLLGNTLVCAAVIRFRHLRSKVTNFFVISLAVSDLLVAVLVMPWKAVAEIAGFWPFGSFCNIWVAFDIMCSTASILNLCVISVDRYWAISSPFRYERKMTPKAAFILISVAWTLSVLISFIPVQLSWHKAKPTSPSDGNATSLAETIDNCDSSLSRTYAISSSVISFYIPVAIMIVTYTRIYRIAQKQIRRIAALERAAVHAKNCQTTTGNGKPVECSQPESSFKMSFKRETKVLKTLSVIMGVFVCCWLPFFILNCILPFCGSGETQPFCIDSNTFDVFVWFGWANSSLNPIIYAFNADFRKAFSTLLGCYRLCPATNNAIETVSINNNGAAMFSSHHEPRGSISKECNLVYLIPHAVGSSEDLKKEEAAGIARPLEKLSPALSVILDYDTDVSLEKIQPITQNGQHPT
Sequence of Cytochrome P450 2C8 (P10632 whole entry): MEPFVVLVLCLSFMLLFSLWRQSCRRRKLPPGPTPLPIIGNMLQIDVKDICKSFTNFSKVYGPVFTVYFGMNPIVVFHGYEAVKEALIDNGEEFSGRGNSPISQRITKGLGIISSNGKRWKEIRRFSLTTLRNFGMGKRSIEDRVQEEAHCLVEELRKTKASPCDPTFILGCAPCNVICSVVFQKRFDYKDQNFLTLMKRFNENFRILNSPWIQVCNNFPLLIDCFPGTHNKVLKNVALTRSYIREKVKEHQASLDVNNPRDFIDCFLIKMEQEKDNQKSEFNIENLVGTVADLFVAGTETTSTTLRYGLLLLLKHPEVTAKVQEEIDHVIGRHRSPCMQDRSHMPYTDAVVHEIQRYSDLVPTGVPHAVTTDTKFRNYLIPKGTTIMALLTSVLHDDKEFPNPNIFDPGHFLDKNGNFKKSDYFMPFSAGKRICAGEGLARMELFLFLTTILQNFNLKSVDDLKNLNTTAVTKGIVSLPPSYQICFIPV
Sequence of Cytochrome P450 2C9 (P11712 whole entry): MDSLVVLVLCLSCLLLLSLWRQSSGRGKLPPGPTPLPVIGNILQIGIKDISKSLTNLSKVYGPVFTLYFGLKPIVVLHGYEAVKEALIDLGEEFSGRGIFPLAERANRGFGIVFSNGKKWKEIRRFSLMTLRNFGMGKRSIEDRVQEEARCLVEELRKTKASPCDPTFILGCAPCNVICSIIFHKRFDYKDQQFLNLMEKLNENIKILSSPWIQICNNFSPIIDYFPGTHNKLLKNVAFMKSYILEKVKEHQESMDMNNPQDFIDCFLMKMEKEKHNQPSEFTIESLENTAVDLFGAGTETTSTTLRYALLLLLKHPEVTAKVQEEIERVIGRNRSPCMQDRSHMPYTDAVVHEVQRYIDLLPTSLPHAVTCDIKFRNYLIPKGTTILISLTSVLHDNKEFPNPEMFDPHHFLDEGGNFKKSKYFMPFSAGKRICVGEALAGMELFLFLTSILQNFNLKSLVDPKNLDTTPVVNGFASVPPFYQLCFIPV
Sequence of Beta-2 adrenergic receptor (P07550 whole entry): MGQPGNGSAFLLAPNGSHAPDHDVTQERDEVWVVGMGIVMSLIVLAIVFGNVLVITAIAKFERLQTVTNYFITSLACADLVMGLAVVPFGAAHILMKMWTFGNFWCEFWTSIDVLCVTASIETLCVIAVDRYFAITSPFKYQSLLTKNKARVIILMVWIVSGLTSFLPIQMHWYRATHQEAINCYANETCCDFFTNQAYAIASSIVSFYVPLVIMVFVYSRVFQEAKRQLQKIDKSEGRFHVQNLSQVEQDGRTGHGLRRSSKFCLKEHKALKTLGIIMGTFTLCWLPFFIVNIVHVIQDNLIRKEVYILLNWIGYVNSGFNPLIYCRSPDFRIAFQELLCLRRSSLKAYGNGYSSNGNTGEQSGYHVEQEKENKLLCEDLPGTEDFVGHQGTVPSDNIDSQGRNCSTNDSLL
Sequence of Beta-3 adrenergic receptor (P13945 whole entry): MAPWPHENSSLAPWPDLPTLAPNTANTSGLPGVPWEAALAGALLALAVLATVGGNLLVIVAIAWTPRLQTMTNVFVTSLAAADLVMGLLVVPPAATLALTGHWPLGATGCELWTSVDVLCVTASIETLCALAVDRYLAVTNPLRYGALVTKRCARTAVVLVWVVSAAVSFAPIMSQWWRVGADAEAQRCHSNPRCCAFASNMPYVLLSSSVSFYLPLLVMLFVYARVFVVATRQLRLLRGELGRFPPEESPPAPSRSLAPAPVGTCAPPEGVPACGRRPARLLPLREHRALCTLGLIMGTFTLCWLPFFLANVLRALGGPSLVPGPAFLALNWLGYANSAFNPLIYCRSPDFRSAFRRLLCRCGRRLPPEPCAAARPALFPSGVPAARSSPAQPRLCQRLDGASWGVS

Cc1ccc(NC(=O)C[C@H](CCC(=O)O)c2noc([C@H]3C[C@@H](CC(C)(C)C)C3)c2C2CC2)c(Cl)c1
clearance [1]: 1.83 mL/min/kg | MRT [2]: 5.6 h | half-life [3]: 3.8 h | clearance [4]: 0.5 mL/min/kg | clearance [5]: 0.5 mL/min/kg | clearance [6]: 3.17 mL/min/kg | Selectivity ratio [7]: > 100 | Selectivity ratio [8]: > 100 | Selectivity ratio [9]: > 100 | Selectivity ratio [10]: > 100 | Selectivity ratio [11]: > 100 | Selectivity ratio [12]: > 100 | Selectivity ratio [13]: > 100 | Selectivity ratio [14]: > 100 | Selectivity ratio [15]: > 100 | Selectivity ratio [16]: > 100 | Selectivity ratio [17]: > 100 | Selectivity ratio [18]: > 100 | IC50 [19]: > 10 µM | IC50 [20]: > 10 µM | IC50 [21]: > 10 µM | IC50 [22]: > 10 µM | IC50 [23]: 6.2 µM | IC50 [24]: > 10 µM | IC50 [25]: > 10 µM | IC50 [26]: > 10 µM | IC50 [27]: > 10 µM | IC50 [28]: > 10 µM | IC50 [29]: 6.8 µM | IC50 [30]: > 10 µM | Activity [31]: Non-Toxic | Activity [32]: Non-Toxic | Activity [33]: Non-Toxic | Activity [34]: Non-Toxic | Activity [35]: Non-Toxic | Cmax [36]: 2260 ng/mL | Cmax [37]: 8790 ng/mL | Tmax [38]: 3.03 h | Tmax [39]: 3 h | AUC(0-t) at 144 h [40]: 6030 ng·h/mL | AUC(0-t) at 144 h [41]: 11000 ng·h/mL | AUC(0-t) at 144 h [42]: 21200 ng·h/mL | AUC(0-t) at 144 h [43]: 49500 ng·h/mL | AUC(0-t) at 144 h [44]: 140000 ng·h/mL | AUC(0-t) at 144 h [45]: 241000 ng·h/mL | AUC(0-t) at 144 h [46]: 371000 ng·h/mL | half-life [47]: 7.42 h | half-life [48]: 10.7 h | Activity [49]: Non-Toxic

From ChEMBL document CHEMBL5537159, “Discovery and SAR of JTE-151: A Novel RORγ Inhibitor for Clinical Development” (J Med Chem, 2024)
